# In US9593097B2, “Axl inhibitors” (Pfizer Inc., priority 2014, dated 2017):
# Target: Axl phosphorylation in 293MSR-AxlWT6 cells (Homo sapiens (Human), UniProt P30530)
# Assay: Cellular Axl phosphorylation ELISA assay (Gas6-stimulated 293MSR-AxlWT6 cells)
# Assay type: cell-based
# Settings: Table 4A, read-out: CELL AXL IC50
# Procedure: Cellular Axl Phosphorylation ELISA Assay
# After 6-7 hrs in tissue culture incubator at 37° C. 5% CO2, medium was removed, serum-free medium was added (with 0.04% bovine serum albumin) and plates were returned to incubator where they remained overnight. […] Media was then removed and lysis buffer was added to wells and shaken at 4° C. for 30 min to generate protein lysates. Subsequently, phosphorylation of Axl was assessed by a sandwich ELISA method using a DuoSet IC Human Phospho-Axl ELISA assay kit (R&D System), an immobilized mouse anti-human Axl antibody and an anti-phospho-tyrosine-HRP antibody as a detection antibody. Antibody-coated plates were (a) incubated in presence of protein lysates at room temperature for 2 hrs, (b) washed seven times in 0.1% Tween 20 in PBS, (c) incubated with secondary antibody (a horseradish peroxidase-conjugated […]) for 2 hrs, (d) washed seven times again, (e) TMB peroxidase substrate (Bio-Rad) was added to initiate a colorimetric reaction and stopped by adding 0.2 N H2SO4, and (f) measured at OD 450 nm using a spectrophotometer. IC50 values were calculated by concentration-response curve fitting using a four-parameter analytic method and reported in μM.
# For Table 4B, IC50 values were calculated by concentration-response curve fitting using a four-parameter analytic method and reported in nM.
# Chain of Axl phosphorylation in 293MSR-AxlWT6 cells (P30530 26-894): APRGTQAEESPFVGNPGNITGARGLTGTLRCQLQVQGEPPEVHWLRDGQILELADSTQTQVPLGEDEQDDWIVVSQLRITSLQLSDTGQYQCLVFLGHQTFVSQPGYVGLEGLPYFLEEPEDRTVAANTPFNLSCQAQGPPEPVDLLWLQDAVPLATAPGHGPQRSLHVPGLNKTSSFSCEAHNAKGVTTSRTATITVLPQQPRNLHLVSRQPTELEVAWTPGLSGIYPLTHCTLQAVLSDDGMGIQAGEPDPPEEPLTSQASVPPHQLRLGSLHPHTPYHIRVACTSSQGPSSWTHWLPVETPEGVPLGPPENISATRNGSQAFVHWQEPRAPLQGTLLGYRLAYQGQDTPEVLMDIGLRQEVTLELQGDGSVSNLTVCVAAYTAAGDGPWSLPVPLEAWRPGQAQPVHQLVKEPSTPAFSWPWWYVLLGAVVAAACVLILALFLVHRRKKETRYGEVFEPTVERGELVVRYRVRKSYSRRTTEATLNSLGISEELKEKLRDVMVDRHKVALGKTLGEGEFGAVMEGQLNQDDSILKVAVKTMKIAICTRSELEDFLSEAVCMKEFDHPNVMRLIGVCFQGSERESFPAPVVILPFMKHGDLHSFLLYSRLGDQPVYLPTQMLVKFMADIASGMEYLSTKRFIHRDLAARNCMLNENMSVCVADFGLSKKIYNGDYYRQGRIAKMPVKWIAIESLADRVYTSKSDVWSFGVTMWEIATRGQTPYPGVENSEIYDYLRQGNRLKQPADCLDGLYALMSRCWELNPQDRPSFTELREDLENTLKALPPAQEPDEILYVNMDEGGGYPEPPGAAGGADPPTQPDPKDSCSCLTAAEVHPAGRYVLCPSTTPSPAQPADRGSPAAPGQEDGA
row,SMILES,IC50 [nM]
1,"COc1ccnc2[nH]nc(C3CCN(c4cc(C(=O)N[C@@H](C)C(F)(F)F)nc(OC[C@H]5CCO5)n4)CC3)c12 [Example 381, 6-[4-(4-methoxy-1H-pyrazolo[3,4-b]pyridin-3-yl)piperidin-1-yl]-2-[(2R)-oxetan-2-ylmethoxy]-N-[(2S)-1,1,1-trifluoropropan-2-yl]pyrimidine-4-carboxamide]",0.77
2,"COC[C@@H](C)Oc1nc(C(=O)N[C@H](C)CN(C)C)cc(N2CCC(c3ccc(N)c(C(N)=O)n3)CC2)n1 (single isomer, unassigned) [Example 36]",87.4
3,"N#CC1(COc2nc(C(=O)NCC(F)(F)F)nc(N3CCC(COc4cccnc4N)CC3)n2)CC1 [Example 91, 4-(4-{[(2-aminopyridin-3-yl)oxy]methyl}piperidin-1-yl)-6-[(1-cyanocyclopropyl)methoxy]-N-(2,2,2-trifluoroethyl)-1,3,5-triazine-2-carboxamide]",64.9
4,"COC[C@@H](C)Oc1nc(C(=O)NC2CCC2)cc(N2CCC(c3ccc(N)c(C(N)=O)n3)CC2)n1 [Example 4, 6-[4-(5-amino-6-carbamoylpyridin-2-yl)piperidin-1-yl]-N-cyclobutyl-2-{[(2R)-1-methoxypropan-2-yl]oxy}pyrimidine-4-carboxamide]",2.83
5,"N#C[C@@H]1C[C@@H]1COc1nc(C(=O)NCC(F)(F)F)nc(N2CCC(c3ccc(N)c(C(N)=O)n3)CC2)n1 [Example 89, 4-[4-(5-amino-6-carbamoylpyridin-2-yl)piperidin-1-yl]-6-{[(1S,2R)-2-cyanocyclopropyl]methoxy}-N-(2,2,2-trifluoroethyl)-1,3,5-triazine-2-carboxamide]",134
6,"C[C@H](CO)NC(=O)c1cc(N2CCC(COc3cc(-c4cn(C)cn4)cnc3N)CC2)nc(OCC2CC2)n1 [Example 384, 6-[4-({[2-amino-5-(1-methyl-1H-imidazol-4-yl)pyridin-3-yl]oxy}methyl)piperidin-1-yl]-2-(cyclopropylmethoxy)-N-[(2R)-1-hydroxypropan-2-yl]pyrimidine-4-carboxamide]",0.36
7,"CCNC(=O)c1cc(N2CCC(COc3cc(-c4cn(C)cn4)cnc3N)CC2)nc(O[C@H](C)COC)n1 [Example 68, 6-[4-({[2-amino-5-(1-methyl-1H-imidazol-4-yl)pyridin-3-yl]oxy}methyl)piperidin-1-yl]-N-ethyl-2-{[(2R)-1-methoxypropan-2-yl]oxy}pyrimidine-4-carboxamide]",2.94
8,"COC[C@@H](C)Oc1nc(C(=O)NCC2CC2)nc(N2CCC(c3ccc(N)c(C(N)=O)n3)CC2)n1 [Example 58, 4-[4-(5-amino-6-carbamoylpyridin-2-yl)piperidin-1-yl]-N-(cyclo-propylmethyl)-6-{[(2R)-1-methoxypropan-2-yl]oxy}-1,3,5-triazine-2-carboxamide]",23.8
9,"C[C@H](NC(=O)c1cc(N2CCC(c3cccc(C(N)=O)n3)CC2)nc(OCC2(C#N)CC2)n1)C(F)(F)F [Example 13, 6-[4-(6-carbamoylpyridin-2-yl)piperidin-1-yl]-2-[(1-cyanocyclopropyl)methoxy]-N-[(2S)-1,1,1-trifluoropropan-2-yl]pyrimidine-4-carboxamide]",59
10,"C[C@@H](NC(=O)c1cc(N2CCC(c3ccc(N)c(C(N)=O)n3)CC2)nc(OCC2CC2(F)F)n1)C(C)(C)O (single isomer, unassigned) [Example 16]",12.6
11,"CC(CN(C)C)NC(=O)c1cc(N2CCC(c3ccc(N)c(C(N)=O)n3)CC2)nc(OCC2CC2)n1 (stereo not drawn) [Example 34, 6-[4-(5-amino-6-carbamoylpyridin-2-yl)piperidin-1-yl]-2-(cyclopropyl-methoxy)-N-[1-(dimethylamino)propan-2-yl]pyrimidine-4-carboxamide]",30.5
12,"COc1ccnc2[nH]cc(C3CCN(c4nc(OC[C@H]5C[C@H]5C#N)nc(C(=O)NC5(C)CCC5)n4)CC3)c12 [Example 378, 4-{[(1S,2R)-2-cyanocyclopropyl]methoxy}-6-[4-(4-methoxy-1H-pyrrolo[2,3-b]pyridin-3-yl)piperidin-1-yl]-N-(1-methylcyclobutyl)-1,3,5-triazine-2-carboxamide]",0.24
13,"COc1ccnc2[nH]cc(C3CCN(c4nc(OC[C@H]5C[C@H]5C#N)nc(C(=O)N[C@@H](C)C(F)(F)F)n4)CC3)c12 [Example 379, 4-{[(1S,2R)-2-cyanocyclopropyl]methoxy}-6-[4-(4-methoxy-1H-pyrrolo[2,3-b]pyridin-3-yl)piperidin-1-yl]-N-[(2S)-1,1,1-trifluoropropan-2-yl]-1,3,5-triazine-2-carboxamide]",0.2
14,"CCOc1nc(C(=O)NC2CCC2)cc(N2CCC(c3nc(C(N)=O)ccc3OCCN(C)C)CC2)n1 [Example 2, 6-(4-{6-carbamoyl-3-[2-(dimethylamino)ethoxy]pyridin-2-yl}piperidin-1-yl)-N-cyclobutyl-2-ethoxypyrimidine-4-carboxamide]",246
15,"COC[C@@H](C)Oc1nc(C(=O)NC2CCC2)nc(N2CCC(c3ccc(N)c(C(N)=O)n3)CC2)n1 [Example 40, 4-[4-(5-amino-6-carbamoylpyridin-2-yl)piperidin-1-yl]-N-cyclobutyl-6-{[(2R)-1-methoxypropan-2-yl]oxy}-1,3,5-triazine-2-carboxamide]",5.77
16,"C[C@@H](NC(=O)c1cc(N2CCC(c3cccc(C(N)=O)n3)CC2)nc(OCC2CC2(F)F)n1)C(C)(C)O (stereo partly drawn) [Example 17, 6-[4-(6-carbamoylpyridin-2-yl)piperidin-1-yl]-2-[(2,2-difluoro-cyclopropyl)methoxy]-N-[(2R)-3-hydroxy-3-methylbutan-2-yl]pyrimidine-4-carboxamide]",39.9

# Second part, the compound after the results:
row,IC50 [nM],SMILES
1,15.5,"N#C[C@@H]1C[C@@H]1COc1nc(C(=O)NC23CC(C2)C3)cc(N2CCC(c3n[nH]c4ncccc34)C(F)C2)n1 (single isomer, unassigned) [Example 74]"
2,8.42,"N#C[C@@H]1C[C@@H]1COc1nc(C(=O)NC23CC(C2)C3)cc(N2CC[C@@H](c3n[nH]c4ncccc34)[C@@H](F)C2)n1 (single isomer, unassigned) [Example 78]"
3,40.8,"C[C@@H](O)COc1nc(C(=O)NC23CC(C2)C3)cc(N2CCC(c3n[nH]c4ncccc34)CC2)n1 [Example 70, N-(bicyclo[1.1.1]pent-1-yl)-2-[(2R)-2-hydroxypropoxy]-6-[4-(1H-pyrazolo[3,4-b]pyridin-3-yl)piperidin-1-yl]pyrimidine-4-carboxamide]"
4,285,"CCNC(=O)c1nc(OCC2(C#N)CC2)nc(N2CCC(c3n[nH]c4ncccc34)CC2)n1 [Example 133, 4-(4-(1H-pyrazolo[3,4-b]pyridin-3-yl)piperidin-1-yl)-6-((1-cyanocyclopropyl)methoxy)-N-ethyl-1,3,5-triazine-2-carboxamide]"
5,3.84,"C[C@H](CO)NC(=O)c1cc(N2CCC(c3n[nH]c4ncccc34)CC2)nc(OCC2CC(F)(F)C2)n1 [Example 47, 2-[(3,3-difluoro-cyclobutyl)methoxy]-N-[(2R)-1-hydroxypropan-2-yl]-6-[4-(1H-pyrazolo[3,4-b]pyridin-3-yl)piperidin-1-yl]pyrimidine-4-carboxamide]"
6,56.4,"N#C[C@@H]1C[C@@H]1COc1nc(C(=O)NC23CC(C2)C3)cc(N2CC[C@H](c3n[nH]c4ncccc34)[C@H](F)C2)n1 (single isomer, unassigned) [Example 79]"
7,228,"C[C@H](CO)Oc1nc(C(=O)NC23CC(C2)C3)cc(N2CCC(c3n[nH]c4ncccc34)CC2)n1 [Example 69, N-(bicyclo[1.1.1]pent-1-yl)-2-{[(2R)-1-hydroxypropan-2-yl]oxy}-6-[4-(1H-pyrazolo[3,4-b]pyridin-3-yl)piperidin-1-yl]pyrimidine-4-carboxamide]"
8,18.7,"CS(=O)(=O)COc1ccnc2[nH]nc(C3CCN(c4cc(C(=O)NC56CC(C5)C6)nc(OC[C@H]5C[C@H]5C#N)n4)CC3)c12 [Example 67, N-(bicyclo[1.1.1]pent-1-yl)-2-{[(1S,2R)-2-cyanocyclopropyl]methoxy}-6-(4-{4-[(methylsulfonyl)methoxy]-1H-pyrazolo[3,4-b]pyridin-3-yl}piperidin-1-yl)pyrimidine-4-carboxamide]"
9,1.86,"N#C[C@@H]1C[C@@H]1COc1nc(C(=O)NC23CC(C2)C3)cc(N2CCC(c3n[nH]c4nccc(OCCO)c34)CC2)n1 [Example 65, N-(bicyclo[1.1.1]pent-1-yl)-2-{[(1S,2R)-2-cyanocyclopropyl]methoxy}-6-{4-[4-(2-hydroxyethoxy)-1H-pyrazolo[3,4-b]pyridin-3-yl]piperidin-1-yl}pyrimidine-4-carboxamide]"
10,42.8,"CS(=O)(=O)COc1cnc2[nH]nc(C3CCN(c4cc(C(=O)NC56CC(C5)C6)nc(OC[C@H]5C[C@H]5C#N)n4)CC3)c2c1 [Example 77, N-(bicyclo[1.1.1]pent-1-yl)-2-{[(1S,2R)-2-cyanocyclopropyl]methoxy}-6-(4-{5-[(methylsulfonyl)methoxy]-1H-pyrazolo[3,4-b]pyridin-3-yl}piperidin-1-yl)pyrimidine-4-carboxamide]"
11,15.5,"C[C@H](CO)NC(=O)c1cc(N2CCC(c3c[nH]c4ncccc34)CC2)nc(OC[C@H]2CCO2)n1 [Example 50, N-[(2R)-1-hydroxypropan-2-yl]-2-[(2R)-oxetan-2-ylmethoxy]-6-[4-(1H-pyrrolo[2,3-b]pyridin-3-yl)piperidin-1-yl]pyrimidine-4-carboxamide]"
